In ChEMBL document CHEMBL1149407, “Angelmarin, a novel anti-cancer agent able to eliminate the tolerance of cancer cells to nutrient starvation” (2006) one finds Activity data, which are given here for two compounds.

Experiment [1] deals with PANC-1. Description: Cytotoxicity in pancreatic PANC1 cancer cells at 100 ug/ml in nutrient-rich condition. Particulars: Homo sapiens. In kind it is functional, cell-based.
The subject of experiment [2] is PANC-1. Description: Cytotoxicity in pancreatic PANC1 cancer cells at 100 ug/ml in nutrient-deprived condition. It is filed as functional, cell-based. To be noted: Homo sapiens.
Experiment [3] has as its system PANC-1. Description: Cytotoxicity in pancreatic PANC1 cancer cells at 0.01 ug/ml within 24 hours of nutrient deprivation. It is filed as functional, Homo sapiens.
Experiment [4] relates to PANC-1. Description: Cytotoxicity in pancreatic PANC1 cancer cells at 10 ug/ml within 6 hours of nutrient deprivation. In kind it is functional, Homo sapiens.

The source made the active and inactive calls. No cut-off for these calls is given here.

As for `CC(C)(O)[C@@H]1Cc2c(ccc3ccc(=O)oc23)O1`, the result with PANC-1 [1] and with PANC-1 [2] was inactive.
With `CC(C)(OC(=O)/C=C/c1ccc(O)cc1)[C@@H]1Cc2c(ccc3ccc(=O)oc23)O1` [ANGELMARIN], the Activity in the experiment on PANC-1 [3] and in the experiment on PANC-1 [4] was 100% each time.
